Assay [1] concerns the target T1, Recombinant Human NF-kappaB-Inducing Kinase (NIK/MAP3K14) (Homo sapiens, UniProt Q99558). In words: Biological Assay A: inhibition of recombinant human NIK/MAP3K14 activity (MBP phosphorylation, Mesoscale). Particulars: averaged over all measurements on all batches; read-out: Biochemical (MSD MBP) IC50. The class given is biochemical. The procedure, abridged:
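10 nM NIK with 25 μM ATP on MBP-coated plates in Tris pH 7.5 buffer with MgCl2, DTT and Na3VO4 and 1% DMSO, for 1 h at 25° C. Phospho-MBP was detected by anti-phospho-MBP and Sulfotag electrochemiluminescence; after blank subtraction, IC50 came from a sigmoidal fit of % inhibition.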

In assay [2] the target is T1, Recombinant Human NF-kappaB-Inducing Kinase (NIK/MAP3K14). In words: Biological Assay A2: inhibition of auto-phosphorylation of recombinant human NIK/MAP3K14 (AlphaScreen). The format is biochemical. Particulars: auto-phosphorylation; averaged over all measurements on all batches; read-out: αscreen IC50. The method, boiled down:
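AlphaScreen readout of anti-phospho-IKK Ser176/180 signal after 1 h, 25° C. incubation of 0.2 nM GST-NIK with compound and 25 microM ATP (Tris pH 7.5 buffer, MgCl2, 1% DMSO final). IC50 from sigmoidal fit of blank-corrected % inhibition against Log10 concentration.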
A general note: Bead proximity is the source of the signal in Alpha formats.

The subject of assay [3] is P-IKKα levels in L363 cells. In words: Biological Assay B: effect of compounds on P-IKKα levels in L363 cells. The format is cell-based. Particulars: Homo sapiens, L-363, averaged values, read-out: IKKα Cellular IC50. On the procedure:
Effect of Compounds on P-IKKα Levels in L363 Cells
All compounds tested were dissolved in DMSO and further dilutions were made in culture medium. Final DMSO concentration was 1% (v/v) in cell assays. The human L363 cells (ATCC) were cultured in RPMI 1640 medium supplemented with GlutaMax and 10% fetal calf serum (PAA). Cells were routinely maintained at densities of 0.2×10^6 cells per ml-1×10^6 cells per ml at 37° C. in a humidified 5% CO2 atmosphere. Cells were passaged twice a week splitting back to obtain the low density. Cells were seeded in 96 well plates (Nunc 167008) at 2×10^6 per ml media in a volume of 75 μl per well plus 25 μl 1 μg/ml recombinant human B-cell activating factor BAFF/B1YS/TNFSF13B. Seeded cells were incubated at 37° C. in a humidified 5% CO2 atmosphere for 24 hr. Drugs and/or solvents were added (20 μl) to a final volume of 120 μl. Following 2 hr treatment plates were removed from the incubator and cell lysis was achieved by the addition of 30 μl 5× lysis buffer followed by shaking on a plate shaker at 4° C. for 10 min. At the end of this incubation lysed cells were centrifuged at 800×g for 20 min at 4° C. and the lysate was assessed for P-IKKα levels by sandwich immuno-assay carried out in anti-rabbit antibody coated Mesoscale plates. Within an experiment, the results for each treatment were the mean of 2 replicate wells. For initial screening purposes, compounds were tested using an 8 point dilution curve (serial 1:3 dilutions). For each experiment, controls (containing MG132 and BAFF but no test drug) and a blank incubation (containing MG132 and BAFF and 10 μM ADS125117, a test concentration known to give full inhibition) were run in parallel. The blank incubation value was subtracted from all control and sample values. To determine the IC50 a sigmoidal curve was fitted to the plot of % inhibition of control P-IKKα levels versus Log10 compound concentration.

Assay [4] has as its system LP-1 cells. In words: Biological Assay C: antiproliferative activity on LP-1 cells (CellTiter-Glo). Particulars: Homo sapiens, LP-1, 72 h, 72 hr treatment; averaged values. The format is cell-based, human. The method, boiled down: (§1)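 Luminescent ATP signal (CellTiter-Glo) measures growth of myeloma cells following a 72 h compound treatment. Values for the time-zero blank are subtracted, and each mean of duplicate wells is given as percentage of the no-drug control.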

Assay [5] has as its system L-363 cells. The assay is described as follows: Biological Assay C: antiproliferative activity on L-363 cells (CellTiter-Glo). The format is cell-based, human. Particulars: Homo sapiens, L-363, 72 h, 72 hr treatment; averaged values. The procedure, abridged: as §1
On the technique in general: Cellular ATP, detected with luciferase, serves as a proxy for viable cell number.

Assay [6] has as its system JJN-3 cells. The assay is described as follows: Biological Assay C: antiproliferative activity on JJN-3 cells (CellTiter-Glo). The format is cell-based, human. As to conditions: Homo sapiens, JJN-3, 72 h, 72 hr treatment; averaged values. The procedure, abridged: as §1

T1 sequence (Q99558 whole entry): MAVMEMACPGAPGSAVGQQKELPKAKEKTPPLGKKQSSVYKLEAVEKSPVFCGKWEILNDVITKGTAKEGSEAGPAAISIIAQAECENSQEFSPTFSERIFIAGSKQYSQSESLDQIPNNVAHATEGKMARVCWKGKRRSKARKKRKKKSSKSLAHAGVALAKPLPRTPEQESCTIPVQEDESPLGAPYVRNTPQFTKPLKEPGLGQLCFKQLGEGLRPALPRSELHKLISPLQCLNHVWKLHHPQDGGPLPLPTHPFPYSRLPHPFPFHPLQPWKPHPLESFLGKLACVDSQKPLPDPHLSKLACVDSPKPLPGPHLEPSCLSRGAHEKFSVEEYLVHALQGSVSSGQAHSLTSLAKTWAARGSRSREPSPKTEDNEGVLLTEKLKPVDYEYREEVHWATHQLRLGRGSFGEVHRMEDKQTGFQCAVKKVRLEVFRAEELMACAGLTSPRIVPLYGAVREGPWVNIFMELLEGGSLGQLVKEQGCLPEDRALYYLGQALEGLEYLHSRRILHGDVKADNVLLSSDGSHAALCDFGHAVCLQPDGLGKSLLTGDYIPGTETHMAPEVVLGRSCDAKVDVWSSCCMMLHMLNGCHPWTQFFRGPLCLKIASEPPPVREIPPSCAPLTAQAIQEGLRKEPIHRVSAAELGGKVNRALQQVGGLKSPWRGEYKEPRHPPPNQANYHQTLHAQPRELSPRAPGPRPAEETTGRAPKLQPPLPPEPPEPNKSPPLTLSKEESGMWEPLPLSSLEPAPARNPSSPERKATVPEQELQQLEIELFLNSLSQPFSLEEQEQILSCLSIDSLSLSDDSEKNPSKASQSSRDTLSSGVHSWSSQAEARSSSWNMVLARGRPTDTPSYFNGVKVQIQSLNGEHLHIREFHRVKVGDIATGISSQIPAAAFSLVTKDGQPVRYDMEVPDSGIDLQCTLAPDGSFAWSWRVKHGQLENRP

With `COCCn1cc(-c2nc(N)ncc2Cl)c2cc(C#CC(C)(O)c3nccs3)ncc21` (stereo not drawn) [Compound 20], the IC50 in assay [1] was determined as 9.4 nM; in assay [2], 15 nM; in assay [3] it was 30 nM. The 50% effective concentration (EC50) in assay [4] was 11000 nM; in assay [5], 5000 nM; in assay [6], 1000 nM.

`CC(C)(O)Cn1cc(-c2nc(N)ncc2Cl)c2cc(C#CC3(O)CC3)ncc21` [Compound 21]: the 50% inhibitory concentration (IC50) in assay [1] was determined as 18 nM; in assay [2], 3 nM; in assay [3], 13 nM. The concentration for a half-maximal effect (EC50) came out at 2800 nM in assay [4], 74 nM in assay [5] and 66 nM in assay [6].

In the case of `CC(C)(O)Cn1cc(-c2ccnc(N)n2)c2cc(C#CC3(O)CC3)ncc21` [Compound 22], the IC50 amounted to 20 nM in assay [1], 9 nM in assay [2] and 75 nM in assay [3]. Besides, the concentration giving a half-maximal response (EC50) in assay [4] is 1600 nM; in assay [5] it was 190 nM; in assay [6] it was 280 nM.

In the case of `CC(C)(O)Cn1cc(-c2nc(N)ncc2Cl)c2cc(C#CC(C)(O)c3nccs3)ncc21` (stereo not drawn) [Compound 23], the IC50 was found to be 30 nM in assay [1], 9 nM in assay [2] and 89 nM in assay [3]. The values for the EC50 in assay [4], in assay [5] and in assay [6] were 7700 nM, 9900 nM and 2500 nM, respectively.

Consider `CC(C)(O)C#Cc1cc2c(-c3nc(N)ncc3Cl)cn(CC(C)(C)O)c2cn1` [Compound 24], for which the concentration for half-maximal inhibition (IC50) in assay [1] came to 8.7 nM; in assay [2] it was 15 nM; in assay [3], 13 nM. The results for the EC50 in assay [4], in assay [5] and in assay [6] were 760 nM, 96 nM and 140 nM, respectively.

For `COCCn1cc(-c2nc(N)ncc2Cl)c2cc(C#CC(C)(C)O)ncc21` [Compound 25], the half-inhibitory concentration (IC50) in assay [1] amounted to 9.9 nM; in assay [2], 20 nM; in assay [3], 11 nM. The concentration giving a half-maximal response (EC50) in assay [4] stood at 190 nM; in assay [5], 63 nM; in assay [6] it was 110 nM.

For the molecule `COCCn1cc(-c2ccnc(N)n2)c2cc(C#CC(C)(O)c3nccs3)ncc21` (stereo not drawn) [Compound 26], the IC50 in assay [1] amounted to 49 nM; in assay [2], 19 nM; in assay [3], 120 nM. For the same molecule, the figures for the EC50 in assay [4], in assay [5] and in assay [6] were 15000 nM, 11000 nM and 5600 nM, respectively.

For `CC(C)(O)Cn1cc(-c2ccnc(N)n2)c2cc(C#CC(C)(O)c3nccs3)ncc21` (stereo not drawn) [Compound 27], the half-maximal inhibitory concentration (IC50) in assay [1] was 25 nM; in assay [2] it was 70 nM; in assay [3], 360 nM. The concentration for a half-maximal effect (EC50) in assay [4] is greater than 10000 nM; in assay [5], greater than 10000 nM; in assay [6] it was 9700 nM.

On to `CC(C)(O)C#Cc1cc2c(-c3ccnc(N)n3)cn(CC3COC3)c2cn1` [Compound 28], for which the IC50 was 17 nM in assay [1], 49 nM in assay [2] and 84 nM in assay [3]. For the same molecule, the results for the EC50 in assay [4], in assay [5] and in assay [6] were 5800 nM, 810 nM and 1200 nM, respectively.

Regarding `CC(C)(O)Cn1cc(-c2ccnc(N)n2)c2cc(C#CC3(O)CCOC3)ncc21` (stereo not drawn) [Compound 29], the half-inhibitory concentration (IC50) in assay [1] was determined as 140 nM; in assay [2], 110 nM; in assay [3] it was 6300 nM. For the same molecule, the half-maximal effective concentration (EC50) in assay [4], in assay [5] and in assay [6] was greater than 10000 nM throughout.

For the molecule `CN(C)C(=O)Cn1cc(-c2ccnc(N)n2)c2cc(C#CC(C)(C)O)ncc21` [Compound 30], the 50% inhibitory concentration (IC50) in assay [1] stood at 120 nM; in assay [2] it was 930 nM; in assay [3], 1700 nM. The EC50 was greater than 10000 nM in assay [4], 24000 nM in assay [5] and 12000 nM in assay [6].

`COCCn1cc(-c2ccnc(N)n2)c2cc(C#CC(C)(O)c3ncco3)ncc21` (stereo not drawn) [Compound 31]: the IC50 in assay [1] was 36 nM; in assay [2], 79 nM; in assay [3], 110 nM. The EC50 in assay [4] is greater than 10000 nM; in assay [5] it was 6400 nM; in assay [6], 1900 nM.

For the molecule `COCCn1cc(-c2ccnc(N)n2)c2cc(C#CC(C)(O)C3CC3)ncc21` (stereo not drawn) [Compound 32], the IC50 stood at 59 nM in assay [1], 40 nM in assay [2] and 89 nM in assay [3]. The results for the half-maximal effective concentration (EC50) in assay [4], in assay [5] and in assay [6] were 1500 nM, 740 nM and 460 nM, respectively.

Turning to `CC(C)(O)Cn1cc(-c2nc(N)ncc2Cl)c2cc(C#CC3(O)CCCC3)ncc21` [Compound 33], the concentration for half-maximal inhibition (IC50) in assay [1] is 4.2 nM; in assay [2], 16 nM; in assay [3], 53 nM. Besides, the results for the concentration for a half-maximal effect (EC50) in assay [4], in assay [5] and in assay [6] were 4100 nM, 1100 nM and 150 nM, respectively.

Consider `CN1CC(n2cc(-c3ccnc(N)n3)c3cc(C#CC(C)(C)O)ncc32)C1` [Compound 34], for which the half-maximal inhibitory concentration (IC50) in assay [1] was 76 nM; in assay [2], 42 nM; in assay [3], 160 nM. For the same molecule, the values for the EC50 in assay [4], in assay [5] and in assay [6] were 4100 nM, 240 nM and 330 nM, respectively.

With `CCC(O)(C#Cc1cc2c(-c3ccnc(N)n3)cn(CCOC)c2cn1)CC` [Compound 35], the figures for the IC50 in assay [1], in assay [2] and in assay [3] were 120 nM, 150 nM and 470 nM, respectively. Further, the EC50 in assay [4] turned out to be 3800 nM; in assay [5], 3000 nM; in assay [6], 2000 nM.

In the case of `CC(C)(O)Cn1cc(-c2ccnc(N)n2)c2cc(C#CC(C)(O)c3ccccc3)ncc21` (stereo not drawn) [Compound 36], the concentration for half-maximal inhibition (IC50) in assay [1] is 17 nM; in assay [2], 86 nM; in assay [3] it was 900 nM. Further, the figures for the EC50 in assay [4], in assay [5] and in assay [6] were 12000 nM, 7900 nM and 1700 nM, respectively.

As for `CC(C)(O)Cn1cc(-c2ccnc(N)n2)c2cc(C#CC(C)(O)C3CCC3)ncc21` (stereo not drawn) [Compound 37], the IC50 turned out to be 45 nM in assay [1], 100 nM in assay [2] and 330 nM in assay [3]. In addition, the EC50 is greater than 10000 nM in assay [4], 16000 nM in assay [5] and 3600 nM in assay [6].

Consider `CC(C)(O)Cn1cc(-c2ccnc(N)n2)c2cc(C#CC3(O)CCCCC3)ncc21` [Compound 38], for which the IC50 is 21 nM in assay [1], 56 nM in assay [2] and 370 nM in assay [3]. Further, the EC50 in assay [4] is greater than 10000 nM; in assay [5] it was 15000 nM; in assay [6], 1900 nM.

As for `CC(C)C(C)(O)C#Cc1cc2c(-c3ccnc(N)n3)cn(CC(C)(C)O)c2cn1` (stereo not drawn) [Compound 40], the figures for the half-maximal inhibitory concentration (IC50) in assay [1], in assay [2] and in assay [3] were 43 nM, 110 nM and 530 nM, respectively. Also, the EC50 in assay [4] amounted to 25000 nM; in assay [5], 4500 nM; in assay [6] it was 2300 nM.

Regarding `COCCn1cc(-c2nc(N)ncc2C#N)c2cc(C#CC(C)(C)O)ncc21` [Compound 41], the IC50 came out at 3.5 nM in assay [1], 9 nM in assay [2] and 43 nM in assay [3]. Further, the EC50 in assay [4] stood at 2200 nM; in assay [5] it was 290 nM; in assay [6], 240 nM.

As for `CC(C)(O)Cn1cc(-c2ccnc(N)n2)c2cc(C#CC3(O)CCC3)ncc21` [Compound 42], the IC50 in assay [1] is 5.7 nM; in assay [2] it was 24 nM; in assay [3], 84 nM. Besides, the concentration for a half-maximal effect (EC50) was determined as 16000 nM in assay [4], 1500 nM in assay [5] and 330 nM in assay [6].

Regarding `CCC(C)(O)C#Cc1cc2c(-c3ccnc(N)n3)cn(CC(C)(C)O)c2cn1` (stereo not drawn) [Compound 43], the half-inhibitory concentration (IC50) in assay [1] is 29 nM; in assay [2], 38 nM; in assay [3], 280 nM. The half-maximal effective concentration (EC50) in assay [4] is greater than 10000 nM; in assay [5], 4100 nM; in assay [6], 650 nM.

By IC50 is commonly meant the concentration that gives 50% inhibition. Usually EC50 stands for the concentration needed to bring the measured effect to its halfway point. Read a high EC50 as weaker potency.

Values taken from patent US9643964B2, “3-(2-aminopyrimidin-4-yl)-5-(3-hydroxypropynyl)-1H-pyrrolo[2,3-C]pyridine derivatives as NIK inhibitors for the treatment of cancer” (Janssen Pharmaceutica NV, priority 2013, dated 2017).
